Measurements published in article PMC5547389, “Structure-activity relationships and molecular docking studies of chromene and chromene based azo chromophores: A novel series of potent antimicrobial and anticancer agents” (EXCLI Journal, 2017).
Converted amounts (≈) assume the structure as drawn.

Columns and labels:
[1] = system: Human colon carcinoma (HCT-116); test: Cytotoxic screening; type: cell-based; settings: HCT-116; for IC50: Homo sapiens, read-out: IC50 HCT-116
Procedure: (§1) Human colon carcinoma (HCT-116), human hepatocellular carcinoma (HEPG-2), adenocarcinomic human alveolar basal epithelial cell (A-549), and human breast adenocarcinoma (MCF-7) cell lines were obtained from the American Type Culture Collection (ATCC, Rockville, MD). The cells were grown on RPMI-1640 medium supplemented with 10 % inactivated fetal calf serum and 50 µg/ml gentamycin. The cells were maintained at 37 °C in a humidified atmosphere with 5 % CO2 and were subcultured two to three times a week. Potential cytotoxicity of the compounds was evaluated on tumor cells using the method of Gangadevi and Muthumary (2007[21]) (Klancnik et al., 2010[36]). The cells were grown as monolayers in growth RPMI-1640. The monolayers of 104 cells adhered at the bottom of the wells in a 96-well microtiter plate incubated for 24 h at 37 °C in a humidified incubator with 5 % CO2. The monolayers were then washed with sterile phosphate buffered saline (0.01 M pH 7.2) and simultaneously the cells were treated with 100 µL from different dilutions of tested sample in fresh maintenance medium and incubated at 37 °C. A control of untreated cells was made in the absence of tested sample. Positive controls containing doxorubicin were also tested as a reference drug for comparison. Six wells were used for each concentration of the test sample. Every 24 hours an observation under the inverted microscope was made. The number of the surviving cells was determined by staining the cells with crystal violet (Mosmann, 1983[42]; Gangadevi and Muthumary, 2007[21]) followed by cell lysing using 33 % glacial acetic acid and reading the absorbance at 590 nm using microplate reader (SunRise, TECAN, Inc, USA) after well mixing. The absorbance values from untreated cells were considered as 100 % proliferation. The number of viable cells was determined using microplate reader as previously mentioned before and the percentage of […] was calculated as [1-(ODt/ODc)] x 100 % where ODt is the mean optical density of wells treated with the tested sample and ODc is the mean optical density of untreated cells. The relation between surviving cells and drug concentration was plotted to get the survival curve of each tumor cell line after treatment with the specified compound. The 50 % inhibitory concentration (IC50), the concentration required to cause toxic effects in 50 % of intact cells, was estimated from graphic plots.
(§2) The in vitro cytotoxic activity was performed by MTT assay (Mosmann, 1983[42]; Alley et al., 1988[6]) against three human carcinoma cell lines: Human colon carcinoma (HCT-116), human breast adenocarcinoma (MCF-7), and human hepatocellular carcinoma (HEPG-2).

[2] = system: human hepatocellular carcinoma (HEPG-2); test: Cytotoxic screening; type: cell-based; settings: HepG2, read-out: IC50 HepG-2
Procedure: as §1, §2

[3] = system: human breast adenocarcinoma (MCF-7); test: Cytotoxic screening; type: cell-based; settings: for IC50: Homo sapiens, MCF7, read-out: IC50 MCF-7
Procedure: as §1, §2

SMILES | IC50 [1] | IC50 [2] | IC50 [3] | melting point | IC50 HCT-116 [1] | IC50 MCF-7 ([3]; MCF-7)
COc1cc(C2C(C#N)=C(N)Oc3c(N)cc4ccccc4c32)cc(OC)c1OC (stereo not shown) [4h, 3,5-Diamino-1-(3,4,5-trimethoxy-phenyl)-1H-benzo[f]chromene-2-carbonitrile] | 500 µg/mL (≈ 1240 µM) | 500 µg/mL (≈ 1240 µM) | 500 µg/mL (≈ 1240 µM) | 225 °C | – | –
N#CC1=C(N)Oc2c(N)cc3ccccc3c2C1c1ccsc1 (stereo not shown) [4i, 3,5-Diamino-1-thiophen-3-yl-1H-benzo[f]chromene-2-carbonitrile] | 500 µg/mL (≈ 1570 µM) | 188 µg/mL (≈ 589 µM) | 386 µg/mL (≈ 1210 µM) | 230 °C | – | –
COc1cccc2c1C(=O)c1c(O)c3c(c(O)c1C2=O)C[C@@](O)(C(=O)CO)C[C@@H]3O[C@H]1C[C@H](N)[C@H](O)[C@H](C)O1 [Doxorubicin, reference compound] | 0.88 µg/mL (≈ 1.62 µM) | 1.19 µg/mL (≈ 2.19 µM) | 1.02 µg/mL (≈ 1.88 µM) | – | – | –
N#CC1=C(N)Oc2c(N)cc3ccccc3c2C1c1cccc(C(F)(F)F)c1F (stereo not shown) [4g, 3,5-Diamino-1-(2-fluoro-3-trifluoromethyl-phenyl)-1H-benzo[f]chromene-2-carbonitrile] | 30 µg/mL (≈ 75.1 µM) | 32.4 µg/mL (≈ 81.1 µM) | 53.5 µg/mL (≈ 134 µM) | 202 °C | – | –
N#CC1=C(N)Oc2c(N)cc3ccccc3c2C1c1ccc(Cl)cc1Cl (stereo not shown) [4e, 3,5-Diamino-1-(2,4-dichloro-phenyl)-1H-benzo[f]chromene-2-carbonitrile] | 2 µg/mL (≈ 5.23 µM) | 1 µg/mL (≈ 2.62 µM) | 1.5 µg/mL (≈ 3.92 µM) | 278 °C | – | –
O=c1[nH]cc(F)c(=O)[nH]1 [5-Flurouracil, reference compound] | – | – | – | – | 4.3 µg/mL (≈ 33.1 µM) | 3.9 µg/mL (≈ 30 µM)
N#CC1=C(N)Oc2c(N)cc3ccccc3c2C1c1ccc(F)cc1F (stereo not shown) [4f, 3,5-Diamino-1-(2,4-difluoro-phenyl)-1H-benzo[f]chromene-2-carbonitrile] | 9.25 µg/mL (≈ 26.5 µM) | 5.22 µg/mL (≈ 14.9 µM) | 6.38 µg/mL (≈ 18.3 µM) | 282 °C | – | –
CC[C@]1(O)C[C@@H]2CN(CCc3c([nH]c4ccccc34)[C@@](C(=O)OC)(c3cc4c(cc3OC)N(C)[C@H]3[C@@](O)(C(=O)OC)[C@H](OC(C)=O)[C@]5(CC)C=CCN6CC[C@]43[C@@H]65)C2)C1 [Vinblastine, reference compound] | 2.6 µg/mL (≈ 3.21 µM) | 4.6 µg/mL (≈ 5.67 µM) | 6.1 µg/mL (≈ 7.52 µM) | – | – | –
